Test results reported in PubChem BioAssay (NCI).
Several values for one entry are separate records, joined by “and”; a condition that tells them apart may be missing. Equal entries are not always repeated.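 Method: 48-hour compound exposure of cells in 96-well plates, five concentrations, linear interpolation of endpoints. GI50: concentration for 50% inhibition of growth. TGI marks complete inhibition of growth.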

Experiments:
Assay in all cases: NCI tumour cell line growth inhibition, 48 h
MDA-N = tested on: MDA-N
SNB-78 CNS = tested on: SNB-78 CNS
KM20L2 colon = tested on: KM20L2 colon
DMS 114 small cell lung = tested on: DMS 114 small cell lung
LXFL 529 NSCLC = tested on: LXFL 529 NSCLC
M19-MEL melanoma = tested on: M19-MEL melanoma
HOP-18 NSCLC = tested on: HOP-18 NSCLC
XF 498 CNS = tested on: XF 498 CNS
RXF-631 renal = tested on: RXF-631 renal
SN12K1 renal = tested on: SN12K1 renal
P388/ADR leukemia = tested on: P388/ADR leukemia

Row | SMILES | TGI (MDA-N) | TGI (SNB-78 CNS) | TGI (KM20L2 colon) | TGI (DMS 114 small cell lung) | TGI (LXFL 529 NSCLC) | TGI (M19-MEL melanoma) | TGI (HOP-18 NSCLC) | TGI (XF 498 CNS) | TGI (RXF-631 renal) | also measured
1 | CNC(=S)Nc1ccc(OC)c2ccccc12 | > 10 µM |  |  |  |  |  |  |  |  | 
2 | IC[P+]1(c2ccccc2)CCCC1 |  | > 100 µM | > 100 µM | 36.3 µM | > 100 µM | 81 µM | > 100 µM |  |  | 
3 | Cc1ccc(S(=O)(=O)SC/C=C\CSS(=O)(=O)c2ccc(C)cc2)cc1 | > 31.6 µM | > 100 µM and 89.5 µM | > 88.5 µM and 49.1 µM |  | > 67.8 µM and 33.9 µM | > 100 µM and 95.1 µM | > 100 µM and 82.5 µM | > 100 µM and 43.9 µM |  | GI50 (LXFL 529 NSCLC): 8.61 µM and 17.5 µM; GI50 (HOP-18 NSCLC): > 100 µM and 35.6 µM
4 | Cn1c(=O)c(N=Nc2c(=O)n(C)c(=O)n3c2[nH]c2ccccc23)c2[nH]c3ccccc3n2c1=O |  | > 100 µM | > 100 µM | > 100 µM | > 100 µM | > 100 µM | > 100 µM | > 100 µM | > 100 µM | 
5 | COc1ccc2nccc(C3=CCC4CCN(C(=O)c5ccccc5)C3C4)c2c1 (stereo not given) |  | > 100 µM |  | > 100 µM | > 100 µM | > 100 µM |  | > 100 µM |  | 
6 | O=c1ncccn1[C@@H]1O[C@H](CO)[C@H](O)C1O (stereo not given in full) |  | > 100 µM | > 100 µM | > 100 µM | > 100 µM | > 100 µM | > 100 µM | > 100 µM |  | 
7 | C=C(c1ccccc1)C1(O)CCCCC1N (stereo not given) |  | > 100 µM | > 100 µM | > 100 µM | > 100 µM | > 100 µM | > 100 µM | > 100 µM |  | 
8 | CCOC(=O)NC(=O)c1cn(CCN2CCN(C(=O)NCCCCCCNC(=O)N3CCN(CCn4cc(C(=O)NC(=O)OCC)c(=O)[nH]c4=O)CC3)CC2)c(=O)[nH]c1=O |  | > 100 µM | > 100 µM | > 100 µM | > 100 µM | > 100 µM | > 100 µM | > 100 µM | > 100 µM | 
9 | CN(C(=O)/C=C/c1ccccc1)C1C2CN3CCC(O2)C13 (stereo not given) |  | > 100 µM | > 100 µM | > 100 µM | > 100 µM |  | > 100 µM | > 100 µM |  | 
10 | Cc1c(OC(C)C(=O)O)ccc2c(-c3ccccc3)cc(=O)oc12 (stereo not given) |  | > 100 µM | > 100 µM | > 100 µM | > 100 µM | > 100 µM | > 100 µM | > 100 µM | > 100 µM | 
11 | CC(=O)OCc1c2ccccc2c(C)c2c1cc(F)c1ccccc12 |  | 59.8 µM | 87 µM | > 100 µM | > 100 µM |  | > 100 µM | 45.2 µM | 63 µM | 
12 | CC(=O)Nc1ccc(-c2cc(C(=O)O)c3cc4ccccc4cc3n2)cc1 | > 100 µM |  |  |  |  |  |  |  |  | 
13 | Cn1ccnc1CCc1c(Cl)cccc1Cl |  | > 100 µM | > 100 µM | > 100 µM | > 100 µM | > 100 µM | > 100 µM |  |  | 
14 | O=C1C2C3C=C4c5ccccc5N(c5ccccc5)C4(C2C(=O)N1c1ccccc1)C1C(=O)N(c2ccccc2)C(=O)C31 (stereo not given) |  | > 100 µM | > 100 µM | > 100 µM | > 100 µM | > 100 µM | > 100 µM | > 100 µM | > 100 µM | 
15 | O=C1Nc2ccccc2C1(O)C/C(=N/O)c1ccc2ccccc2c1 (stereo not given) |  | > 100 µM | > 100 µM | > 100 µM | > 100 µM | > 100 µM | > 100 µM | > 100 µM | > 100 µM | 
16 | CC1=C(C(=O)Nc2ccccc2C)C(c2ccc(Cl)cc2)C(C(=O)Nc2ccccc2C)=C(C)N1 |  | > 100 µM |  | > 100 µM | > 100 µM | > 100 µM | > 100 µM | > 100 µM | > 100 µM | 
17 | FC(F)(F)c1cccc(-c2nc3nc(Cl)c(Cl)nc3[nH]2)c1 | 32 µM |  |  |  |  |  |  |  |  | 
18 | CCc1cccc(C)c1NS(=O)(=O)c1ccccc1 |  | > 100 µM | > 100 µM | > 100 µM | > 100 µM | > 100 µM |  | > 100 µM | > 100 µM | 
19 | CC1CC(C)CC(C)C(O)/C(C#N)=C/C=C/CC(C2CCCC2C(=O)O)OC(=O)CC(O)C(C)C1 (stereo not given) | 0.0646 µM | 0.13 µM | 1.43 µM | < 0.016 µM | 0.0397 µM | 0.0532 µM | 0.0612 µM | < 0.0264 µM | 0.254 µM | TGI (SN12K1 renal): < 22.3 nM; GI50 (MDA-N): 18.8 nM; TGI (P388/ADR leukemia): < 14.3 nM
20 | CC[O-].CC[O-].O=C([CH-]C(=O)c1ccccc1)CCCCCCCCC(=O)[CH-]C(=O)c1ccccc1.[Ti+4] |  | > 100 µM | > 100 µM | > 100 µM | > 100 µM | > 100 µM |  | > 100 µM | > 100 µM | GI50 (SNB-78 CNS): > 100 µM; GI50 (RXF-631 renal): > 100 µM; GI50 (KM20L2 colon): > 100 µM; GI50 (XF 498 CNS): > 100 µM; GI50 (DMS 114 small cell lung): 80.6 µM; GI50 (LXFL 529 NSCLC): > 100 µM; GI50 (M19-MEL melanoma): > 100 µM
21 | O=C1C[C@H]2CCCN2[C@@H](c2ccccc2)C1 |  | > 100 µM | > 100 µM |  | > 100 µM | > 100 µM | > 100 µM | > 100 µM | > 100 µM | 
22 | C=CCc1c(Cl)nc(Cl)nc1Cl | 0.116 µM |  |  |  |  |  |  |  |  | 
23 | Cc1cc2c(C)nn(Cc3ccccc3)c2c(C(=O)O)c1C |  | > 100 µM | > 100 µM |  | > 100 µM | > 100 µM | > 100 µM | > 100 µM | > 100 µM | 

Row | SMILES | TGI (MDA-N) | TGI (SNB-78 CNS) | TGI (KM20L2 colon) | TGI (DMS 114 small cell lung) | TGI (LXFL 529 NSCLC) | TGI (M19-MEL melanoma) | TGI (HOP-18 NSCLC) | TGI (XF 498 CNS) | TGI (RXF-631 renal) | also measured
24 | O=c1cc(-c2cccs2)[nH]c2cc3c(cc12)OCO3 |  | > 100 µM | 41.3 µM | > 24.5 µM | > 100 µM | > 100 µM | > 100 µM | 15.3 µM | > 100 µM | 
25 | O=C(/C=C/c1ccccc1)Oc1cccc2cccnc12 |  | > 100 µM | > 39.3 µM |  | 52.2 µM | > 100 µM | > 100 µM | 72.5 µM |  | 
26 | O=C(O)CCNS(=O)(=O)c1ccc(NC(=O)c2ccccc2)cc1 |  |  | > 100 µM |  | > 100 µM | > 100 µM | > 100 µM | > 100 µM |  | 
27 | N=C1C(O)C2(I)c3ccccc3N3C(=N)C(O)C4c5ccccc5N1C4C32 (stereo not given) | > 100 µM |  |  |  |  |  |  |  |  | 
28 | C1CSCCCSCCCSCCCSCCCSCCCSCCCSCCCSC1 | > 100 µM |  |  |  |  |  |  |  |  | 
29 | c1ccc(NN(Cc2cnccn2)c2ccccc2)cc1 | > 100 µM |  |  |  |  |  |  |  |  | 
30 | CN(C)CCNC(=O)Cn1ccc(=O)c2cc([N+](=O)[O-])ccc21 | > 100 µM |  |  |  |  |  |  |  |  | 
31 | CCc1c(C#N)c(=O)[nH]c(=O)n1CCN1CCN(C(=O)NCCCCCCNC(=O)N2CCN(CCn3c(CC)c(C#N)c(=O)[nH]c3=O)CC2)CC1 |  | > 100 µM | > 100 µM | > 100 µM | > 100 µM | > 100 µM | > 100 µM | > 100 µM | > 100 µM | 
32 | O=[N+]([O-])c1ccccc1N=Nc1c(O)[nH]c2cccc(C(F)(F)F)c12 | 33.3 µM |  |  |  |  |  |  |  |  | 
33 | C[C@@H](NC(C#N)c1ccco1)c1ccccc1 (stereo not given in full) | > 100 µM |  |  |  |  |  |  |  |  | 
34 | O=C(NCCCOC(=O)CCCCCCCCC(=O)OCCCNC(=O)NC(=O)c1c[nH]c(=O)[nH]c1=O)NC(=O)c1c[nH]c(=O)[nH]c1=O |  | > 100 µM | > 100 µM |  | > 100 µM | > 100 µM | > 100 µM | > 100 µM | > 100 µM | 
35 | Nc1ncnc2c1ncn2C1OC(CSCC(F)(F)F)C(O)C1O (stereo not given) |  | > 100 µM | > 100 µM |  | > 100 µM | > 100 µM | > 100 µM | > 100 µM |  | 
36 | CCSCCCSCCSCC | > 100 µM |  |  |  |  |  |  |  |  | 
37 | O=C(Nc1cccc(Cl)c1)Nn1cnnc1 | > 100 µM |  |  |  |  |  |  |  |  | 
38 | CN1N=CSC12C(=O)N(c1ccccc1)C(=O)N2c1ccccc1 (stereo not given) |  | > 100 µM | > 100 µM | > 100 µM | > 100 µM | > 100 µM | 9.62 µM | > 100 µM | > 100 µM | 
39 | Cc1nc(C(N)=O)c(N)n1CCN1CCN(C(=O)CCCCCCCCCCNC2N=CNc3nc[nH]c32)CC1 (stereo not given) |  | > 100 µM | > 100 µM | > 100 µM | 71.6 µM | > 100 µM | > 100 µM |  | > 100 µM | 
40 | O=C(N/N=C/c1ccccc1O)N/N=C/c1ccccc1O |  | > 100 µM | > 100 µM | > 100 µM | > 100 µM | > 100 µM | > 100 µM | > 100 µM | > 100 µM | 
41 | N#CC(N)=Nc1ccccc1 |  |  | > 100 µM | 31.1 µM | > 100 µM | > 100 µM | > 100 µM |  | > 100 µM | 
42 | COC(=O)C1=CO[C@@H](OC2CC(CO)C(O)C(O)C2O)[C@@H]2[C@@H](C)[C@@H](OC(=O)/C=C/c3ccccc3)[C@@H](O)[C@H]12 (stereo not given in full) (tested in a mixture with another compound) |  |  | > 100 µM | > 100 µM | > 100 µM | > 100 µM | > 100 µM | > 100 µM |  | 
43 | O=C1CC(CC(=O)C2CCCCC2=O)C(=O)N1 (stereo not given) |  | > 100 µM | > 100 µM | > 100 µM | > 100 µM | > 100 µM | > 100 µM | > 100 µM |  | 
44 | CC(=O)c1c(O)c(C)c(O)c(Cc2c(O)c3c(c(C(=O)/C=C/c4ccccc4)c2O)OC(C)(C)C=C3)c1O | > 100 µM |  |  |  |  |  |  |  |  | 
45 | COC(=O)/C(=N\NC(C)(C)C)C(C(=O)OC)C(=O)C(=O)Nc1cc(Cl)ccc1Cl (stereo not given) |  | > 100 µM | > 100 µM | > 100 µM | > 100 µM | > 100 µM | > 100 µM | > 100 µM | > 100 µM | 
